Test results: patent US8022207B2, “Compound having affinity to amyloid” (Nihon Medi-Physics Co., Ltd., priority 2006, dated 2011)
Like-named read-outs stand apart in the source and are kept apart here.

Experiments:
[1] = system: Salmonella typhimurium TA98; experiment: Reverse mutation test (Ames test), TA98; format: cell-based; details: maximum 5000 μg/plate
Description: (§1) In order to examine mutagenicity of Compounds 1, 2 and 4, reverse mutation test using Salmonella typhimurium TA98 and TA100 (hereinafter referred to as Ames test) was conducted.
(§2) The test was conducted without addition of S9mix and with addition of S9mix. Dimethylsulfoxide was used as a negative control. A positive control was 2-(2-furyl)-3-(5-nitro-2-furyl)acrylamide in case S9mix was not added, and 2-aminoanthracene in case S9 mix was added.
(§3) The amount of each sample to be added to the test plate was 7 dosages (geometric ratio 4) with the maximum dose being 5000 μg/plate. After a sample to be examined and a strain (TA98 or TA100), or a sample to be examined, S9mix and the strain were mixed together, the mixture was multilayered using soft agar on a medium of a test plate, and then incubated at 37° C. for 48 hours.
(§4) In order to examine mutagenicity of Compound 8, reverse mutation test using Salmonella typhimurium TA98 and TA100 (hereinafter referred to as Ames test) was conducted.
(§5) The test was conducted without addition of S9mix and with addition of S9mix. Dimethylsulfoxide was used as a negative control. A positive control was 2-(2-furyl)-3-(5-nitro-2-furyl)acrylamide in case S9mix was not added, and 2-aminoanthracene in case S9mix was added.
(§6) The amount of Compound 8 to be added to the test plate was 7 dosages (geometric ratio 3) with the maximum dose being 5000 μg/plate. After Compound 8 and a strain (TA98 or TA100), or Compound 8, S9mix and the strain were mixed together, the mixture was multilayered using soft agar on a medium of a test plate, and then incubated at 37° C. for 48 hours.

[2] = system: Salmonella typhimurium TA100; experiment: Reverse mutation test (Ames test), TA100; format: cell-based; details: maximum 5000 μg/plate
Description: as §1, §2, §3, §4, §5, §6

[3] = system: Salmonella typhimurium TA98 and TA100; experiment: Reverse mutation test (Ames test), overall judgment; format: cell-based; details: TA98 and TA100, regardless of addition of S9mix
Description: as §1, §2, §3, §4, §5, §6

[4] = Partition coefficient based on the octanol extraction method (logPoctanol); format: physicochemical; details: octanol / 10 mmol/L phosphate buffer (pH 7.4), radioactivity count
Description: Using the obtained radioactivity count, logPoctanol was calculated in accordance with the equation (2).

[5] = Transferability into brain and clearance (Example I-16, Comparative Example I-7); details: brain, rats, intravenous injection
Description: Using Compound 6, a time course change of radioactive accumulation in brain of male Wistar rats (7-week old) was measured.
Also, radioactivity (hereinafter referred to as B in this Example) of 0.05 mL of a 1000-fold diluted solution of the injected solution was measured in the same manner as above. Using these measurement results, radioactive accumulation per unit weight of brain (% ID/g) at the respective time points was calculated in accordance with the following formula (5).

[6] = target: intracerebral amyloid (aggregated Aβ1-40 injected into amygdaloid nucleus) (Homo sapiens, UniProt P05067); details: rat, Aβ1-40 amyloid suspension in amygdaloid nucleus, brain removed 60 minutes after tail vein injection
intracerebral amyloid (aggregated Aβ1-40 injected into amygdaloid nucleus), sequence (P05067 672-711): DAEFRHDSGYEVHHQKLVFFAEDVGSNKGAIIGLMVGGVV
Description: The following experiment was carried out in order to examine whether amyloid in brain can be imaged by the compound of the present invention.
The rats were examined 1 day after the injection of the amyloid suspension and the phosphate buffered physiological saline solution (pH 7.4).
(§7) (4) Brain was removed 60 minutes after the injection to prepare a brain slice of 10 μm in thickness with a microtome (type: CM3050S, manufactured by LEICA). The brain slice was exposed to an imaging plate for 20 hours, and then image analysis was carried out by use of a Bio-imaging Analyzer (type: BAS-2500; manufactured by FUJIFILM Corporation).

[7] = Transferability into brain and clearance (Example II-11, II-12, Comparative Example II-1); format: in vivo, male Wistar rats; details: brain, rats, intravenous injection
Description: The rats were sacrificed by bleeding from abdominal artery, and brains were removed and subjected to measurement of mass of brains and further subjected to measurement of radioactivity (hereinafter referred to as A in this Example) with a single channel analyzer (detector type: SP-20 manufactured by OHYO KOKEN KOGYO Co., Ltd.) 2, 5, 30 and 60 minutes after the injection. Also, radioactivity (hereinafter referred to as B in this Example) of the rest of the whole body was measured in the same manner as above. Using these measurement results, radioactive accumulation per unit weight of brain (% ID/g) at the respective time points were calculated in accordance with the following formula (6).
Three animals were used for experiment at the respective time points.

[8] = target: T1, intracerebral amyloid (aggregated Aβ1-42 injected into amygdaloid nucleus) (Homo sapiens, UniProt P05067); experiment: Ex vivo autoradiogram using rats of amyloid injected model (aggregated Aβ1-42); set-up: species or system male Wistar rat; details: rat, Aβ1-42 amyloid suspension in amygdaloid nucleus, brain removed 60 minutes after tail vein injection
T1 construct: Aβ1-42 (manufactured by Peptide Institute, Inc.) was dissolved in phosphate buffer (pH 7.4); purchased Peptide Institute, Inc
T1 sequence (P05067 672-713): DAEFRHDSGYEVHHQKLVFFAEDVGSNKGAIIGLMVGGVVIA
Description: As a control, 2.5 μL of a phosphate buffered physiological saline solution (pH 7.4) was injected into an amygdaloid nucleus on the other side of the rat. The rats were examined 1 day after the injection of the amyloid suspension and the phosphate buffered physiological saline solution (pH 7.4).
as §7

[9] = International Publication WO03/106439 pamphlet; cited from earlier work
[10] = [^125I]-labeled, normal mice, brain; cited from earlier work
[11] = [^125I]-labeled compounds; cited from earlier work
[12] = [^11C]-labeled, rats; cited from earlier work

Oc1ccc(-c2cn3cc(Br)ccc3n2)cc1 [Compound 1, 6-bromo-2-(4′-hydroxyphenyl)imidazo[1,2-a]pyridine]
Mutagenicity, With addition of S9mix, TA98 ([1]; 7 dosages (geometric ratio 4)): Negative
Mutagenicity, Without addition of S9mix, TA98 ([1]; 7 dosages (geometric ratio 4)): Negative
Mutagenicity, With addition of S9mix, TA100 ([2]; 7 dosages (geometric ratio 4)): Negative
Mutagenicity, Without addition of S9mix, TA100 ([2]; 7 dosages (geometric ratio 4)): Negative
Judgment in the Ames test (mutagenicity) [3]: negative

Oc1ccc(-c2cn3cc(I)ccc3n2)cc1 [Compound 2, 2-(4′-hydroxyphenyl)-6-iodoimidazo[1,2-a]pyridine]
Mutagenicity, With addition of S9mix, TA98 ([1]; 7 dosages (geometric ratio 4)): Negative
Mutagenicity, Without addition of S9mix, TA98 ([1]; 7 dosages (geometric ratio 4)): Negative
Mutagenicity, With addition of S9mix, TA100 ([2]; 7 dosages (geometric ratio 4)): Negative
Mutagenicity, Without addition of S9mix, TA100 ([2]; 7 dosages (geometric ratio 4)): Negative
Judgment in the Ames test (mutagenicity) [3]: negative

Oc1ccc(-c2cn3cc(I)cnc3n2)cc1 [Compound 4, 2-(4′-hydroxyphenyl)-6-iodoimidazo[1,2-a]pyrimidine]
Mutagenicity, With addition of S9mix, TA98 ([1]; 7 dosages (geometric ratio 4)): Negative
Mutagenicity, Without addition of S9mix, TA98 ([1]; 7 dosages (geometric ratio 4)): Negative
Mutagenicity, With addition of S9mix, TA100 ([2]; 7 dosages (geometric ratio 4)): Negative
Mutagenicity, Without addition of S9mix, TA100 ([2]; 7 dosages (geometric ratio 4)): Negative
Judgment in the Ames test (mutagenicity) [3]: negative

Oc1ccc(-c2cn3cc([125I])ccc3n2)cc1 [Compound 5, [^125I]-2-(4′-hydroxyphenyl)-6-iodoimidazo[1,2-a]pyridine]
logPoctanol value [4]: 1.6

Oc1ccc(-c2cn3cc([123I])ccc3n2)cc1 [Compound 6, [^123I]-2-(4′-hydroxyphenyl)-6-iodoimidazo[1,2-a]pyridine]
Radioactive accumulation per unit weight, After 2 min. [5]: 0.96 % ID/g
Radioactive accumulation per unit weight, After 5 min. [5]: 0.69 % ID/g
Radioactive accumulation per unit weight, After 30 min. [5]: 0.16 % ID/g
Radioactive accumulation per unit weight, After 60 min. [5]: 0.04 % ID/g
Accumulation of radioactivity on intracerebral amyloid (autoradiogram of brain slice) [6]: possesses a property of accumulating on intracerebral amyloid

Oc1ccc(-c2cn3cc(I)ncc3n2)cc1 [Compound 8, 2-(4′-hydroxyphenyl)-6-iodoimidazo[1,2-a]pyrazine]
Mutagenicity, With addition of S9mix, TA98 ([1]; 7 dosages (geometric ratio 3)): Negative
Mutagenicity, Without addition of S9mix, TA98 ([1]; 7 dosages (geometric ratio 3)): Negative
Mutagenicity, With addition of S9mix, TA100 ([2]; 7 dosages (geometric ratio 3)): Negative
Mutagenicity, Without addition of S9mix, TA100 ([2]; 7 dosages (geometric ratio 3)): Negative
Judgment in the Ames test (mutagenicity) [3]: negative

Oc1ccc(-c2cn3cc([123I])cnc3n2)cc1 [Compound 9, [^123I]-2-(4′-hydroxyphenyl)-6-iodoimidazo[1,2-a]pyrimidine]
logPoctanol value [4]: 1.7

Oc1ccc(-c2cn3cc([123I])ncc3n2)cc1 [Compound 10, [^123I]-2-(4′-hydroxyphenyl)-6-iodoimidazo[1,2-a]pyrazine]
Radioactive accumulation per unit weight, After 2 min. [7]: 0.62 % ID/g
Radioactive accumulation per unit weight, After 5 min. [7]: 0.33 % ID/g
Radioactive accumulation per unit weight, After 30 min. [7]: 0.08 % ID/g
Radioactive accumulation per unit weight, After 60 min. [7]: 0.02 % ID/g
logPoctanol value [4]: 2.3
Accumulation of radioactivity in the amygdaloid nucleus on the amyloid-injected side (autoradiogram of brain slice) [8]: marked accumulation of radioactivity

Oc1ccc(-c2cn3cccc([123I])c3n2)cc1 [Compound 11, [^123I]-2-(4′-hydroxyphenyl)-8-iodoimidazo[1,2-a]pyridine]
Radioactive accumulation per unit weight, After 2 min. [7]: 0.65 % ID/g
Radioactive accumulation per unit weight, After 5 min. [7]: 0.43 % ID/g
Radioactive accumulation per unit weight, After 30 min. [7]: 0.09 % ID/g
Radioactive accumulation per unit weight, After 60 min. [7]: 0.03 % ID/g
logPoctanol value [4]: 3.0
Accumulation of radioactivity in the amygdaloid nucleus on the amyloid-injected side (autoradiogram of brain slice) [8]: marked accumulation of radioactivity

CC(=C(C#N)C#N)c1ccc2cc(N(C)CCF)ccc2c1 [FDDNP, 2-(1-{6-[(2-fluoroethyl)(methyl)amino]-2-naphthyl}ethylidene)malononitrile]
Reverse mutation test result [9]: positive

CN(C)c1ccc(-c2nc3ccc(I)cc3o2)cc1 [IBOX, 6-iodo-2-[4′-(N,N-dimethylamino)phenyl]benzoxazole]
Clearance from normal tissues [10]: insufficient in clearance from normal tissues

CN(C)c1ccc(-c2cn3cc(I)ccc3n2)cc1 [IMPY, 6-iodo-2-[4′-(N,N-dimethylamino)phenyl]imidazo[1,2-a]pyridine]
Clearance from normal tissues [11]: rapid clearance from normal tissues
Reverse mutation test result [9]: positive

CNc1ccc(/C=C/c2ccc(O)cc2)cc1 [SB-13, (E)-4-methylamino-4′-hydroxystilbene]
Clearance from normal tissues [12]: it cannot be said that the clearance is sufficiently fast

CN(C)c1ccc(-c2nc3ccc(I)cc3s2)cc1 [TZDM, 6-iodo-2-[4′-(N,N-dimethylamino)phenyl]benzothiazole]
Clearance from normal tissues [10]: insufficient in clearance from normal tissues

CN(C)c1ccc(-c2cn3cc([125I])ccc3n2)cc1 [[^125I]-IMPY, reference compound]
logPoctanol value [4]: 2.1

CN(C)c1ccc(-c2cn3cc([123I])ccc3n2)cc1 [^123I-IMPY, reference compound]
Radioactive accumulation per unit weight, After 2 min. [7]: 1.19 % ID/g
Radioactive accumulation per unit weight, After 5 min. [7]: 0.97 % ID/g
Radioactive accumulation per unit weight, After 30 min. [7]: 0.23 % ID/g
Radioactive accumulation per unit weight, After 60 min. [7]: 0.09 % ID/g
Radioactive accumulation per unit weight, After 2 min. [5]: 1.02 % ID/g
Radioactive accumulation per unit weight, After 5 min. [5]: 0.99 % ID/g
Radioactive accumulation per unit weight, After 30 min. [5]: 0.20 % ID/g
Radioactive accumulation per unit weight, After 60 min. [5]: 0.08 % ID/g

CN(C)c1ccc(/C=C/c2ccc(I)cc2)cc1 [m-I-SB, (E)-4-dimethylamino-4′-iodostilbene]
Clearance from normal tissues [10]: insufficient in clearance from normal tissues
